Measurements: patent US20230149732A1, “COMBINED NITRITE AND LIGHT TREATMENT TO PREVENT DEVICE THROMBOSIS” (Wake Forest University Health Sciences, priority 2021, published 2023)
Read-outs that look alike come from different tables or passages of the source.

How the values were obtained:
platelet activation = test: Inhibition of platelet activation, with or without RBCs (flow cytometry); assay type: cell-based; details: for effect on nitrite-mediated inhibition of platelet activation by RBCs: NO scavenger or RBC surface thiol blocker added
Description: This disclosure also teaches that far-red and near infrared light dramatically enhance nitrite bioactivation by RBCs. Far-red light (about 600-750 nm) and near infrared light (about 700-1400 nm) have been used clinically for improved wound healing, tissue generation, reduction of inflammation, and increasing cerebral blood flow to improve cognition. The mechanism for these actions has been attributed generally to increased blood flow, tissue oxygenation, and angiogenesis secondary to improved mitochondrial function attributed to cytochrome c oxidase redox state and function. However, it was not clear how improvement in cytochrome c oxidation state could account for increased blood flow and other effects of infrared/far-red light. […] The data shown in FIG. 2 strongly supports this premise (note scales). Previous work using inhibition of platelet activation as a measure of nitrite bioactivation has shown that (i) RBCs are necessary for nitrite-mediated inhibition of platelet activation (while other NO donors' ability to inhibit platelet activation is blunted by the presence of RBCs), (ii) this action is abrogated by an NO scavenger, (iii) this action is achieved with plasma levels of nitrite easily attained through dietary nitrate interventions, and (iv) this action involves RBC surface thiols. […] This is attributed to accumulating steady state NO species on the surface of the RBCs. The effects of far-red light without nitrite treatment are small and variable, perhaps reflecting small amounts of nitrite present at steady state and varying between individuals due to diet and other factors.
Nitrite addition to activated platelets in the absence of RBCs has no effect (FIG. 2A—note scale is expanded). […] This interaction is depicted in FIG. 1. It has been shown that Hb is the primary erythrocytic nitrite reductase and that nitrite bioactivation by RBCs involves NO. […] Nitrite is the best suited NO donor for treating thrombosis as it requires the presence of RBCs to work while others efficacy is blunted by RBCs (via the reaction described in Equation 2).
where the ferric hemin reversibly binds NO, GSH reduces the hemin and forms a thiyl radical which then reacts with NO, similar to a mechanism proposed for DNIC formation. The formation of the thiyl radical is supported by lower GSNO yield when the thiyl radical trap 5,5-dimethyl-1-pyrroline N-oxide (DMPO) is added (FIG. 4D). Thus, this system of hemin, NO and thiol (all present in the RBC after nitrite addition) yield both species of interest: nitrosothiols and heme-nitrosyls (which can bind to a surface thiol). Studies using RBCs. […] This inhibition was abrogated by pre-treatment with the thiol binding agent N-ethyl maleimide (NEM) (FIG. 5).

platelet adhesion = details: dual treatment: nitrite plus far-red light
Description: (§1) Also disclosed herein is a mechanism though which […] potentiates the anti-thrombotic effects of far-red light. […] The effects of combining far-red light and nitrite in inhibiting several different measures of clotting using different agonists are disclosed herein.

[1] = target: T1, partially deoxygenated hemoglobin (Homo sapiens, UniProt P68871+P69905); details: hemoglobin 10 mM (in heme) in blood, pseudo first order
Method: In addition, nitrite was measured to assess the effective dose that a patient may encounter. […] For all experiments, the same blood was used for control and treatment and the same amount of calcium infused at the same timepoints. For the example shown in FIG. 11A, no calcium was infused. […] For the example shown in FIG. 11B, calcium additions was added at the 1.5 hour mark and at each of the next two 0.5 hour intervals (1.5 mM; 0.75 mM; and 0.375 mM).

clotting = system: clotting
Method: as §1
(§2) The effects of nitrite and light on reducing clotting in blood were conducted by comparing sham, light alone, nitrite alone and the combination.

[2] = system: device thrombosis in extracorporeal circuit
Description: Two Mito MD LED sources were employed with the tubing sandwiched in between. The power of the LEDs is reported as 100 mW/cm^2 at 6 inches from the device and we measured 35 mW/cm^2 at this distance and 230 mW/cm^2 directly at the surface. […] The system was also maintained at the desired temperature using a circulating water bath attached to the oxygenator representative of use conditions. The blood was deoxygenated by flowing nitrogen through the oxygenator to mimic venous blood from a real patient and hemoglobin saturation was about 70% or so, as tested using absorption spectroscopy and our integrating sphere detector for turbid samples.
Disclosed herein are outcome measures to test the efficacy of the device, including: • (1) Patency of the device. Whether enough clotting will occur to impede flow enough so that the experiment needs to be stopped before six hours of testing. The time to stopping was recorded. • (2) Pressure as a function of time. The pressure in the circuit was recorded every 15 minutes with higher pressures indicating occlusive clotting. • (3) Visual inspection for clotting. Tubing was examined thoroughly every 15 minutes with flashlights and photographs were taken to record the size and number of visual clots. • (4) Blood aliquots were collected every 15 minutes to measure oxygenation state of hemoglobin (so the nitrogen flow can be adjusted). A spectrometer was used with an integrating sphere that collected scattered light to get true absorption of turbid samples. […] RBCS were sedimented and hemoglobin concentration in the supernatant determined by absorption spectroscopy. • (7) Platelet count was assessed as part of a complete blood count. Platelet count goes down as platelets adhere and aggregate in the system.
In addition, nitrite was measured to assess the effective dose that a patient may encounter. […] For all experiments, the same blood was used for control and treatment and the same amount of calcium infused at the same timepoints.
The system was tested by comparing treatment to control in terms of patency, platelet count, and platelet activation.

[3] = target: T1, partially deoxygenated hemoglobin; details: cited from earlier work
clotting in blood = details: TEG, RBCs present
Method: as §2

oxygenated Hb (OxyHb) = oxygenated Hb (OxyHb) (Homo sapiens, UniProt P68871+P69905); details: NO + HbO2; cited from earlier work
deoxygenated RBCs = test: Heme nitrosyl export from deoxygenated RBCs incubated with nitrite (tri-iodide chemiluminescence assay); assay type: cell-based; details: with versus without hemopexin

T1 sequence (P69905 2-142 limits assumed): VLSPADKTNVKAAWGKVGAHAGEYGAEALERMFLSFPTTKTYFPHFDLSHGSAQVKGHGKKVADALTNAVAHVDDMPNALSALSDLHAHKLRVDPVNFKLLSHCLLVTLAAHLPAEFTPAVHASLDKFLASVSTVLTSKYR
T1 sequence (P68871 2-147 limits assumed): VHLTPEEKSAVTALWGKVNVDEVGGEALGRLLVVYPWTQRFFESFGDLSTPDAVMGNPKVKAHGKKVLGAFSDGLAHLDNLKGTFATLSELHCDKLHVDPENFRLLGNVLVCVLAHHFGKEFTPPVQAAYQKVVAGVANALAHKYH
oxygenated Hb (OxyHb), sequence (P69905 2-142 limits assumed): as the sequence (P69905 2-142 limits assumed) above
oxygenated Hb (OxyHb), sequence (P68871 2-147 limits assumed): as the sequence (P68871 2-147 limits assumed) above

Molecule: CC1(C)N([O])C(c2ccc(C(=O)O)cc2)=[N+]([O-])C1(C)C [CPTIO]
- effect on nitrite-mediated inhibition of platelet activation by RBCs (platelet activation): abrogated

Molecule: CC(=O)N[C@H](C(=O)O)C(C)(C)SN=O (racemic) [SNAP, S-Nitroso-N-acetylpenicillamine]
- platelet activation with RBCs treated with nitrosating agent, then washed (platelet activation; RBCs treated with SNAP, excess removed): caused the RBCs to inhibit platelet activation
- effect of light illumination on platelet activation with treated RBCs (platelet activation; RBCs treated, washed, then illuminated): Light potentiates effects

Molecule: O=NO [nitrite]
- platelet adhesion (platelet adhesion): decreases platelet adhesion
- lifetime of the nitrite [1]: about 100 seconds
- reduction of clotting (clotting; combination of nitrite and light, all assays): universally effective in reducing clotting
- reduction of clotting (clotting; monotherapy): mixed effects
- survival time of treated system longer than control circuit, average ([2]; combined nitrite and red light): 220%
- decrease in the number of platelets, first to last sample ([2]; treated system (nitrite plus light), complete blood count, averaged): 32%
- pressure in the circuit ([2]; whole blood, calcium infused, nitrite plus far-red light from the 1.5 hour mark): decreased to less than that of the control circuit
- bimolecular rate constant [3]: 1 M⁻¹ s⁻¹
- rate of clot growth (clotting in blood): decreasing the rate of clot growth
- time to initial fibrin formation (R-time) (clotting in blood): increasing the time to initial fibrin formation
- effect on platelet activation (platelet activation; RBCs present, nitrite alone): decreases platelet activation
- inhibition of platelet activation (platelet activation; RBCs present, nitrite plus far-red light 660 nm, ~5 min): dramatically enhances nitrite bioactivation by RBCs
- effect on platelet activation (platelet activation; nitrite added to activated platelets, absence of RBCs): has no effect

Molecule: [N]=O [NO, Nitric oxide]
- rate constant (oxygenated Hb (OxyHb)): 6-8×10^7 M^−1s^−1

Molecule: CCN1C(=O)C=CC1=O [NEM, N-ethyl maleimide]
- effect on platelet inhibition by SNAP-treated RBCs (platelet activation; pre-treatment with thiol binding agent): abrogated

Molecule: O=C(O)c1cc(SSc2ccc([N+](=O)[O-])c(C(=O)O)c2)ccc1[N+](=O)[O-] [DTNB]
- effect on nitrite-mediated inhibition of platelet activation by RBCs (platelet activation): abrogates inhibition of platelets

B1: hemopexin: a plasma protein with extremely high affinity for free heme (protein, UniProt P02790 24-462, looked up)
Hemopexin: TPLPPTSAHGNVAEGETKPDPDVTERCSDGWSFDATTLDDNGTMLFFKGEFVWKSHKWDRELISERWKNFPSPVDAAFRQGHNSVFLIKGDKVWVYPPEKKEKGYPKLLQDEFPGIPSPLDAAVECHRGECQAEGVLFFQGDREWFWDLATGTMKERSWPAVGNCSSALRWLGRYYCFQGNQFLRFDPVRGEVPPRYPRDVRDYFMPCPGRGHGHRNGTGHGNSTHHGPEYMRCSPHLVLSALTSDNHGATYAFSGTHYWRLDTSRDGWHSWPIAHQWPQGPSAVDAAFSWEEKLYLVQGTQVYVFLTKGGYTLVSGYPKRLEKEVGTPHGIILDSVDAAFICPGSSRLHIMAGRRLWWLDLKSGAQATWTELPWPHEKVDGALCMEKSLGPNSCSANGPGLYLIHGPNLYCYSDVEKLNAAKALPQPQNVTSLLGCTH
- NO species in the supernatant (deoxygenated RBCs): significantly greater NO
